Test results taken from PMC5717258, “Bioaccumulation of pharmaceuticals and personal care product chemicals in fish exposed to wastewater effluent in an urban wetland” (Scientific Reports, 2017).
Like-named read-outs stand apart in the source and are kept apart here.

Assays:
[1] = Procedure: (§1) Plasma from 9 individual male fish (500 µL/individual) was pooled to yield 3 samples for PPCP analysis. […] Plasma from 6 individual carp (2.3–3.5 g) from each location was selected for PPCP analysis. […] Plasma samples were frozen (−80 °C) until analysis.
(§2) A total of 20 fish plasma samples from the pooled caged fish (7) and the wild fish (13) along with 12 water samples were selected for analysis. […] A full list of analytes is provided in Supplementary Information. Mass labelled^13C-, or deuterated surrogate internal standards were used for quantification of all analytes via the isotope dilution/surrogate standard quantitation method. Prior to extraction and/or clean-up procedures, aqueous samples were adjusted to pH 2.0, spiked with extraction surrogate standards, then adjusted to pH 4 using tetrasodium ethylenediamine-tetraacetate dihydrate. Plasma samples (2.3–2.5 g) were spiked with extraction surrogate standards, sonicated with 20 mL acetonitrile, then diluted with ultra-pure water to 200 mL. The extracts were cleaned up by solid phase extraction using Oasis HLB cartridges (Waters Ltd. Mississauga ON), filtered, and analyzed by liquid chromatography-electrospray ionization-tandem mass spectrometry (LC/ESI-MS/MS) in positive or negative ionization mode. The analysis of the complete list of analytes (SI Table S1) required a total of five instrumental runs.

in vivo = details: goldfish (Carassius auratus), in vivo, plasma concentration
Excerpt: Cages were visited weekly, and fish (13/cage) were fed during the visits (20 g/cage). All animal experiments were in accordance with CCAC guidance and approved by the GLLFAS-WSTD Animal Care Committee (Government of Canada). Further details on the caging and preparation of the fish and animal care protocols are provided in Simmons et al.[32]. […] A fourth site, Jordan Harbour (JH), a widening of 20 Mile Creek adjacent to Lake Ontario near Jordan ON, served as a reference site. Mass and fork length were measured and recorded. Plasma collection and storage is described in the SI. Plasma of caged goldfish was divided for proteome, metabolome and PPCP analysis. Due to limited volumes, pooled samples of plasma from 25 individual fish (50 µL/individual) was pooled to yield one sample from at each location for PPCP analysis.
as §2
(§3) Quality assurance steps included analysis of lab blanks for water and plasma along with matrix recovery spikes. […] Detection limits (DLs) were defined as lowest calibration level adjusted to the maximal sample size or 3 times the signal of the noise in the target channel converted to an equivalent sample, whichever was greater. […] Where analytes were detected in two or more samples of the same species or series of water samples, non-detect values were converted to ½ the DL value for reporting purposes.

[2] = for plasma concentration, CPM-C 01: Cootes carp 01, 2011, male; for Cootes carp plasma, range of concentrations: Cootes Paradise Marsh; for plasma concentration, carp, this study (mean) / plasma concentration, goldfish, this study (mean): Table S8
Procedure: as §1, §2, §3

[3] = set-up: method as in US EPA Chemistry Dashboard; details: ref US EPA Chemistry Dashboard; cited from earlier work
[4] = cited from earlier work
[5] = cited from earlier work; for whole fish concentration, salmon: ref Meador et al. 18
[6] = ref Meador et al. 18; cited from earlier work
[7] = human; converted from µg/mL; ref Schulz et al.[56]; cited from earlier work
[8] = female, carp (Cyprinus carpio), in vivo
[9] = male, carp (Cyprinus carpio), in vivo
[10] = male, goldfish (Carassius auratus), in vivo
[11] = Jordan Harbour brown bullhead, wet weight
[12] = Cootes carp 2, Sep 27, 2011, male, wet weight
[13] = Cootes carp 10, Sep 28, 2011, female, wet weight
[14] = Cootes carp 13, Sep 28, 2011, female, wet weight
[15] = Cootes carp 20, 2011, male, wet weight
[16] = Cootes carp 36, Oct 3, 2011, female, wet weight

| plasma concentration, CPM-C 01 ([2]; wet weight) | plasma concentration, CPM-C 2 [2, 12] | plasma concentration, CPM-C 10 [2, 13] | plasma concentration, CPM-C 13 [2, 14] | plasma concentration, CPM-C 20 [2, 15] | plasma concentration, CPM-C 36 [2, 16] | Carp plasma concentration, this study (range) ([2]; Table S7) | SMILES | plasma concentration, JH-BB [1, 11] | log Kow [3] | whole fish concentration, salmon [5] | whole fish concentration, sculpin [6] | Cootes carp plasma, range of concentrations [2] | plasma concentration, carp, this study (mean) [2] | plasma concentration, goldfish, this study (mean) [2] | also measured |
| --- | --- | --- | --- | --- | --- | --- | --- | --- | --- | --- | --- | --- | --- | --- | --- |
| – | – | – | – | – | – | – | C[C@]12CCC(=O)C=C1CC[C@@H]1[C@@H]2[C@@H](O)C[C@@]2(C)[C@H]1CC[C@]2(O)C(=O)CO [Hydrocortisone] | – | – | – | – | – | – | – | plasma concentration, JH-BB ([1]; Brown Bullhead (Ameiurus nebulosus), in vivo): 187 ng/g; concentration at 21 days (in vivo; CPM1 caged): 100 ng/g; concentration at 21 days (in vivo; CPM2 caged): 107 ng/g; concentration at 21 days (in vivo; CPM3 caged): 113 ng/g; concentration at 21 days (in vivo; JH caged): 92.4 ng/g; plasma concentration, CPM-C 10 [2, 8]: 764 ng/g; plasma concentration, CPM-C 13 [2, 8]: 1010 ng/g; plasma concentration, CPM-C 36 [2, 8]: 875 ng/g; plasma concentration, JH-C 73 [2, 8]: 456 ng/g; plasma concentration, JH-C 75 [2, 8]: 1440 ng/g; plasma concentration, CPM-C 2 [2, 9]: 1010 ng/g; plasma concentration, CPM-C 20 [2, 9]: 210 ng/g; plasma concentration, JH-C 54 [2, 9]: 232 ng/g; plasma concentration, JH-C 74 [2, 9]: 242 ng/g; plasma concentration, JH-C 78 [2, 9]: 522 ng/g; plasma concentration, CPM wild-01 [2, 10]: 129 ng/g; plasma concentration, CPM wild-02 [2, 10]: 134 ng/g; plasma concentration, CPM wild-03 [2, 10]: 118 ng/g |
| 0.338 ng/g | 0.216 ng/g | 0.227 ng/g | 0.234 ng/g | 0.179 ng/g | 0.215 ng/g | 0.18 to 0.34 ng/g | NCCC(Oc1ccc(C(F)(F)F)cc1)c1ccccc1 (stereo not drawn) [Norfluoxetine] | < 0.57 ng/g | – | – | – | – | – | – | concentration at 21 days (in vivo; CPM1 caged, CPM1, 07-2014, pooled plasma, wet weight): 0.879 ng/g; concentration at 21 days (in vivo; CPM2 caged, CPM2, 07-2014, pooled plasma, wet weight): 0.58 ng/g; concentration at 21 days (in vivo; CPM3 caged, CPM3, 07-2014, pooled plasma, wet weight): 0.168 ng/g; concentration at 21 days (in vivo; JH caged, Jordan Harbour reference site, 07-2014, pooled plasma, wet weight): < 0.413 ng/g; Goldfish plasma concentration, this study (range) ([2]; Table S7): 0.17 to 1.1 ng/g; plasma concentration, CPM wild-01 ([2]; wild goldfish sample 01, 2012, wet weight): 0.300 ng/g; plasma concentration, CPM wild-02 ([2]; wild goldfish sample 02, 2012, wet weight): 0.654 ng/g; plasma concentration, CPM wild-03 ([2]; wild goldfish sample 03, 2012, wet weight): 1.1 ng/g |
| 0.422 ng/g | 1.23 ng/g | 0.605 ng/g | 0.625 ng/g | 0.431 ng/g | 0.570 ng/g | 0.42 to 1.23 ng/g | CCCCC(=O)N(Cc1ccc(-c2ccccc2-c2nnn[nH]2)cc1)[C@H](C(=O)O)C(C)C [Valsartan] | – | 3.07 | < mdl | < mdl | 0.42 to 1.23 ng/g | 0.65 ng/g wet weight or ng/mL for plasma | < mdl | Therapeutic "normal" blood-plasma/serum concentration [7]: ~800 to 6000 ng/mL; plasma concentration, JH-C 75 ([2]; Jordan Harbour carp 75, Nov 7, 2011, female, wet weight): < 1.2 ng/g |

| SMILES | plasma concentration, CPM-C 01 ([2]; wet weight) | plasma concentration, CPM-C 2 [2, 12] | plasma concentration, CPM-C 10 [2, 13] | plasma concentration, CPM-C 13 [2, 14] | plasma concentration, CPM-C 20 [2, 15] | plasma concentration, CPM-C 36 [2, 16] | Carp plasma concentration, this study (range) ([2]; Table S7) | plasma concentration, JH-BB [1, 11] | log Kow [3] | whole fish concentration, salmon [5] | whole fish concentration, sculpin [6] | Cootes carp plasma, range of concentrations [2] | plasma concentration, carp, this study (mean) [2] | plasma concentration, goldfish, this study (mean) [2] | also measured |
| --- | --- | --- | --- | --- | --- | --- | --- | --- | --- | --- | --- | --- | --- | --- | --- |
| O=C(Nc1ccc(Cl)cc1)Nc1ccc(Cl)c(Cl)c1 [Triclocarban] | 0.317 ng/g | 0.431 ng/g | 0.453 ng/g | 0.468 ng/g | 0.324 ng/g | 3.35 ng/g | 0.32 to 3.35 ng/g | < 1.14 ng/g | 4.90 | 6.5 ng/g wet weight or ng/mL for plasma | < mdl | 0.32 to 3.35 ng/g | 0.89 ng/g wet weight or ng/mL for plasma | < mdl | BAFP in carp plasma, median [4]: 6.9; plasma concentration, crucian carp & common carp ([4]; mean ± SD, ref Tanoue et al.16): 0.34±0.20 ng/g wet weight or ng/mL for plasma; Salmon (whole body) concentration ([5]; Table S7, ref Meador et al. (2016)): 6.5 ng/g |
